Assay results: patent US7714150B2, “Aminoalkyl-amidomethyl-substituted 2-(4-sulphonylamino)-3-hydroxy-3,4-dihydro-2H-chroman-6-yl derivatives” (Solvay Pharmaceuticals GmbH, priority 2005, dated 2010)

What follows are compounds tested against T1, Kv1.3-potassium channel (Homo sapiens, UniProt P22001) (assay: Kv1.3-potassium channel-blocking effect in vitro (membrane potential-sensitive dye fluorescence in transfected CHO cells)). Conditions: 10 μM test substance; CHO cells transfected with Kv1.3; relative to margatoxin.
T1 construct: expressed in transfected cells; host or cells: CHO (Chinese hamster ovary) cells, stably transfected with a Kv1.3 plasmid
Type: cell-based
Description: In this test model, known ovary cells of the Chinese hamster (=CHO) are used which are stably transfected with the Kv1.3-potassium channel The blockade of the cell-inherent Kv1.3-potassium channel activity in the transfected cells is accompanied by a positive shift in the membrane potential from approx. −40 mV to −30 mV, whereas in the wild-type CHO cells investigated in parallel no significant shift in the membrane potential is triggered. A change in the membrane potential is thus connected to the reduction in the Kv1.3-potassium channel activity. By blocking the Kv1.3-potassium channels e.g. with substances of Formula I and the resulting change in the membrane potential, an accumulation of a membrane potential-sensitive fluorescent dye in intracellular compartments of the ovary cells and ultimately increasing fluorescence occurs. The change in the membrane potential of the ovary cells is therefore measured indirectly via the increase in fluorescence of the membrane potential-sensitive dyes.
The cells were transfected with the Kv1.3 plasmid in known manner with a commercially obtainable transfection reagent (DMRIE-C from Gibco BRL, Germany). The successful transfection was verified by means of immunofluorescence and by “patch-clamp” investigations of the potassium ion current. The fluorescence measurements were performed on a Tecan Safire fluorescence reader from Tecan, Germany. In each case, the increase in the fluorescent intensity caused by the blockade of the Kv1.3-potassium channels in the ovary cells with substances of Formula I in a concentration of 10 μM was determined as characteristic variable. The increase in the fluorescent intensity was given in each case in percent (%) compared with an increase in the fluorescent intensity caused by the reference substance margatoxin. Margatoxin is known as a selective Kv1.3-potassium channel blocker (see e.g. M. Garcia-Calvo et al., J. Biol. Chem. 268 (1993) 18866-18874).

T1 sequence (P22001 whole entry): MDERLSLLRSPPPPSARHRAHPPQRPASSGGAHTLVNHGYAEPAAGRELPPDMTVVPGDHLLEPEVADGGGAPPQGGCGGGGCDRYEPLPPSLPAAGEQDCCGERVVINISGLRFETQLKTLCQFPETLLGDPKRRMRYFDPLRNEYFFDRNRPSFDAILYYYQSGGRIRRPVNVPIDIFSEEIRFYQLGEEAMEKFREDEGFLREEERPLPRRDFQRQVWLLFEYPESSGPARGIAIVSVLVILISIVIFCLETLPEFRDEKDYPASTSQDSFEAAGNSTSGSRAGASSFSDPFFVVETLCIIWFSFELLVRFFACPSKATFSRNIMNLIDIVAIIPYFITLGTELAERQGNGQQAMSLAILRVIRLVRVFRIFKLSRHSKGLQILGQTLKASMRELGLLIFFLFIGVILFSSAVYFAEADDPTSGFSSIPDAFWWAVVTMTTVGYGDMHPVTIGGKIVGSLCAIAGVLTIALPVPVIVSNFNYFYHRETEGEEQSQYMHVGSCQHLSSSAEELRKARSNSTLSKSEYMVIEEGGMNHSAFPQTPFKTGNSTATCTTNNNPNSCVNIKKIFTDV

Structure (SMILES) | Increase in the fluorescent intensity (% margatoxin)
CCC(CC)CN([C@@H]1c2cc(CC(=O)N[C@@H]3CCN(Cc4ccccc4)C3)ccc2OC(C)(C)[C@H]1O)S(=O)(=O)c1cccc(OC)c1 [Example 4, (3S, 4R)-N-(1-Benzylpyrrolidin-3R-yl)-2-{4-[(2-Ethylbutyl)-(3-Methoxybenzenesulfonyl)Amino]-3 -Hydroxy-2,2-Dimethylchroman-6-yl}Acetamide] | 41.8
CCCCN(CC)CCNC(=O)Cc1ccc2c(c1)[C@@H](N(CC(CC)CC)S(=O)(=O)c1ccc(I)cc1)[C@H](O)C(C)(C)O2 [Example 5, (3S, 4R)-N-[2-(Butylethylamino)Ethyl]-2-{4-[(2-Ethylbutyl)-(4-iodobenzenesulfonyl)Amino]-3-Hydroxy-2,2-dimethylchroman-6-yl)Acetamide] | 39.8
COc1cccc(S(=O)(=O)N(CCC(C)C)[C@@H]2c3cc(CC(=O)NCC4CN(Cc5ccccc5)CCO4)ccc3OC(C)(C)[C@H]2O)c1 (stereo partly drawn) [Example 6] | 59.9

These compounds were tested on left atrium of rats' hearts (assay: Functional refractory period prolongation on isolated left atria of rats' hearts in vitro). Conditions: 10 μM.
Set-up: species or system rat
Experimental: In this test model it is determined to what extent the Kv1.5-blocking substances of Formula I result in a prolongation of the functional refractory period in the left atrium of rats. The refractory period is the minimum possible elapsed time between the basic stimulus and additional stimulus in which a renewed contraction can be triggered. The extent of the prolongation of the functional refractory period is a measurement of the antiarrhythmic effectiveness of the substances according to the invention. The functional refractory period is determined by testing on the electrically stimulated preparation at what elapsed time from the preceding contraction a renewed contraction can be triggered by additional electrical stimuli.
The hearts were removed from freshly sacrificed rats (Sprague-Dawley, Charles-River, Germany). The left atria were isolated and fastened to force transducers in a temperature-controlled (30° C.), gasified (O2 95%, CO2 5%) organ bath which was filled with modified Tyrode solution (all values in mM: NaCl 137; KCl 2.7; CaCl2 1.8; MgCl2 0.8; NaHCO3 11.9; NaH2PO4 0.6; glucose 5). In order to trigger regular contractions, the preparations were electrically stimulated (rectangular pulses, pulse magnitude 3.5× threshold stimulus, pulse width 1.5 ms, frequency 1 Hz). Initially, the initial value of the functional refractory period was determined by applying extra pulses in addition to the basic stimulus, the elapsed time from the preceding basic stimulus being shortened until no further additional contraction could be triggered. Then the cumulative addition of increasing concentrations (0.1-32 μM) of the substances of Formula I took place at intervals of 20 min. each, the refractory period being determined again in each case 18 min. after the addition had taken place. Before the measurement, stock solutions of the test substances (3.2 and 0.32 mM in 100% DMSO) were prepared. In order to achieve the desired final concentrations of the substances (0.1-32 μM) in the organ bath (volume 25 or 100 ml), corresponding volumes of these stock solutions were then poured into the organ bath.
In each case the prolongation of the functional refractory period (FRP) in the left atrium of the rats' hearts in milliseconds observed after the addition of 10 or 32 μM of the respective substance of Formula I to the atrial preparations was given as characteristic variable.

Structure (SMILES) | FRP prolongation
CCCc1ccc(S(=O)(=O)N[C@@H]2c3cc(CC(=O)N4CCN(Cc5ccccc5)CC4)ccc3OC(C)(C)[C@H]2O)cc1 [Example 1] | 15 (10 μM) ms
CC(C)CCN([C@@H]1c2cc(CC(=O)NCCN3CCCCC3)ccc2OC(C)(C)[C@H]1O)S(=O)(=O)c1ccc(I)cc1 [Example 3, (3S, 4R)-2-{3-Hydroxy-4-[(4-iodobenzenesulfonyl)-(3-methylbutyl)amino]-2,2-dimethylchroman-6-yl}-N-(2-piperidin-1-ylethyl)acetamide] | 15 (10 μM) ms
Cc1ccc(S(=O)(=O)N(CC2CC2)[C@@H]2c3cc(CC(=O)N4CCN(Cc5ccccc5)CC4)ccc3OC(C)(C)[C@H]2O)cc1 [Example 7, (3S, 4R)-N-{6-[2-(4-Benzylpiperazin-1-yl)-2-Oxoethyl]-3-Hydroxy-2,2-Dimethylchroman-4-yl}-N-Cyclopropylmethyl-4-Methylbenzenesulfonamide] | 13 (10 μM) ms
CCc1ccc(S(=O)(=O)NC2c3cc(CC(=O)N4CCN(Cc5ccccc5)CC4)ccc3OC(C)(C)C2O)cc1 (stereo not drawn) [Example 10, N-{6-[2-(4-benzyl-piperazin-1-yl)-2-oxo-ethyl]-3-hydroxy-2,2-dimethyl-chroman-4-yl}-4-ethyl-benzenesulfonamide] | 24 (10 μM) ms

Same assay, conditions: 32 μM

Structure (SMILES) | FRP prolongation
COc1cccc(S(=O)(=O)N(CCC(C)C)[C@@H]2c3cc(CC(=O)NCC4CN(Cc5ccccc5)CCO4)ccc3OC(C)(C)[C@H]2O)c1 (stereo partly drawn) [Example 6] | 16 (32 μM) ms
CCc1ccc(S(=O)(=O)N[C@@H]2c3cc(CC(=O)N4CCN(Cc5cccnc5)CC4)ccc3OC(C)(C)[C@H]2O)cc1 [Example 8, 4-Ethyl-N-((3S,4R)-3-Hydroxy-2,2-Dimethyl-6-{2-Oxo-2-[4-(pyridin-3-ylmethyl)piperazin-1-yl]ethyl}-3,4-dihydro-2H-Chromen-4-yl)Benzenesulfonamide] | 22 (32 μM) ms
